From PMC9981942, “Pharmacokinetics and tissue distribution of Ramulus Mori (Sangzhi) alkaloids in rats and its effects on liver enzyme activity” (Frontiers in Pharmacology, 2023)

Key:
Experiment in all cases: in vitro
[1] = target: T1, CYP1A2 (Homo sapiens, UniProt P05177); details: microsomes, pH 7.4
T1 sequence (P05177 1-516): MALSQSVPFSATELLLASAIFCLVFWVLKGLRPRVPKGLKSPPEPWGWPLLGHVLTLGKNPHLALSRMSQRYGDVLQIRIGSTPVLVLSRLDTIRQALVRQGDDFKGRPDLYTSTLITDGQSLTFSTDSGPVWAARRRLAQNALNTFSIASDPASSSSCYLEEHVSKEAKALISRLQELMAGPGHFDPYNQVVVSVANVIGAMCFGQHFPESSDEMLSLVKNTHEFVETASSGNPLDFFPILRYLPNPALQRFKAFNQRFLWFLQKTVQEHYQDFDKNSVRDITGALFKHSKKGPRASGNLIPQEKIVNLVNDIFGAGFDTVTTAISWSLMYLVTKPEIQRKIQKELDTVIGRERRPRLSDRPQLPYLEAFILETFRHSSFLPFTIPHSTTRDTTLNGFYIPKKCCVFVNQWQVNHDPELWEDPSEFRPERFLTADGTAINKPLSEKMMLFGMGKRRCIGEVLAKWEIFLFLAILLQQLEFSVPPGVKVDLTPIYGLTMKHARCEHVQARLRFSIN

[2] = target: T2, CYP1A2 (Rattus norvegicus, UniProt P04799); details: liver microsomes, pH 7.4, probe phenacetin (50 μM)
T2 sequence (P04799 1-513): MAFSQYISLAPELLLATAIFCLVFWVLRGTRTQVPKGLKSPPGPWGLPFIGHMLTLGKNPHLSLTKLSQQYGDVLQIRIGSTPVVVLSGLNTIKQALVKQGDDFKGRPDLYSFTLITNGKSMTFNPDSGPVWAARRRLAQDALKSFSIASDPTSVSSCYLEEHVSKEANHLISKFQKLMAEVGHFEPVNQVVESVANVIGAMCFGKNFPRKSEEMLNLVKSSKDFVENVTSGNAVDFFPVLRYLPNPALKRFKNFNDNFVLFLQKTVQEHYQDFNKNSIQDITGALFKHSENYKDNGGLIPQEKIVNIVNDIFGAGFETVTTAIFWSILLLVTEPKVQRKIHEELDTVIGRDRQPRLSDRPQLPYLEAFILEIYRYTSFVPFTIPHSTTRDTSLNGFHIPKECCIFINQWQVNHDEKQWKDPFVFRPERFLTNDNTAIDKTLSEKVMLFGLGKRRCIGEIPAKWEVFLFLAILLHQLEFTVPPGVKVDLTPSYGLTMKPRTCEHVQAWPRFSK

[3] = target: T3, CYP3A2 (Rattus norvegicus, UniProt P05183); details: liver microsomes, pH 7.4, probe midazolam (5 μM)
T3 sequence (P05183 1-504): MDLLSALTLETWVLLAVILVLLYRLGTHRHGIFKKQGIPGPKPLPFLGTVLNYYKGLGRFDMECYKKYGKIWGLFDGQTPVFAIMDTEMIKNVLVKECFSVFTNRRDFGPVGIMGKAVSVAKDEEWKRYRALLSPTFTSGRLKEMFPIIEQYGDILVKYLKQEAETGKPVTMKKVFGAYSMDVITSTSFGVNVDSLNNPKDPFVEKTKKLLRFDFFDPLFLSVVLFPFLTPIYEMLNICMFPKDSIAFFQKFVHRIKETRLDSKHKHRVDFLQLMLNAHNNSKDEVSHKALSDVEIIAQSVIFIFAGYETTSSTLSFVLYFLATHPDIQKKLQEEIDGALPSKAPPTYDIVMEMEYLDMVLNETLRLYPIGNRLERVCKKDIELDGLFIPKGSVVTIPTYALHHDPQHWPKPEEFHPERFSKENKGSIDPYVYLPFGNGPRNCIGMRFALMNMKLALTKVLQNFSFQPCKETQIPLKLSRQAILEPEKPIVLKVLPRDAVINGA

[4] = target: T4, CYP2C6 (Rattus norvegicus, UniProt P05178); details: liver microsomes, pH 7.4, probe diclofenac sodium (20 μM)
T4 sequence (P05178 1-490): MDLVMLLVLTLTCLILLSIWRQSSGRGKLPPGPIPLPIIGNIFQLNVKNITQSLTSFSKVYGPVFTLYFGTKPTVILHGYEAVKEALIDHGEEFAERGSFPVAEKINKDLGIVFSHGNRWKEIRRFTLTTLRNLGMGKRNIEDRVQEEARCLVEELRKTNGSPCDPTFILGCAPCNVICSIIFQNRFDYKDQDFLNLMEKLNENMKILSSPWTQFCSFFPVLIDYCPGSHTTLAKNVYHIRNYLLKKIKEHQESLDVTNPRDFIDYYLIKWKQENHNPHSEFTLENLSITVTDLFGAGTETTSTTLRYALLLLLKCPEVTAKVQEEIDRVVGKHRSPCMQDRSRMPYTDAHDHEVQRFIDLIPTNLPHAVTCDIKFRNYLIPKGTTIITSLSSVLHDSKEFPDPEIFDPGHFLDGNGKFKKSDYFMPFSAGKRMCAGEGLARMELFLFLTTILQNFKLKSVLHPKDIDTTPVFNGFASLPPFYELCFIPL

## Cc1nc2c([nH]1)c(=O)n(C)c(=O)n2Cc1ccco1 [furafylline]
[1]
  inhibition at 30 min, 10 μM: 71.8%
[2]
  inhibition at 30 min, 50 μM: 66.3%

## CC(=O)N1CCN(c2ccc(OCC3COC(Cn4ccnc4)(c4ccc(Cl)cc4Cl)O3)cc2)CC1 (stereo not shown) [ketoconazole]
[3]
  inhibition at 5 min, 1 μM: 76.4%

## Nc1ccc(S(=O)(=O)Nc2ccnn2-c2ccccc2)cc1 [sulfaphenazole]
[4]
  inhibition at 10 min, 50 μM: 88%
